In PubChem BioAssay (NCI):
Several values for one entry are separate records, joined by “and”; a condition that tells them apart may be missing. Identical values can stand only once.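 These data come from cells grown in 96-well plates and exposed to compound for 48 hours at five concentrations. Here, GI50 denotes the concentration required for 50% inhibition of growth. TGI: total growth inhibition.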

How the values were obtained:
Assay in all cases: NCI-60 cell line screen, 48 h
[1] = test system: 786-0 renal
[2] = test system: A498 renal
[3] = test system: A549 NSCLC
[4] = test system: ACHN renal
[5] = test system: CAKI-1 renal
[6] = test system: CCRF-CEM leukemia
[7] = test system: COLO 205 colon
[8] = test system: DU-145 prostate
[9] = test system: EKVX NSCLC
[10] = test system: HCT-116 colon
[11] = test system: HCT-15 colon
[12] = test system: HL-60(TB) leukemia
[13] = test system: HOP-62 NSCLC
[14] = test system: HOP-92 NSCLC
[15] = test system: HS 578T breast
[16] = test system: HT29 colon
[17] = test system: IGROV1 ovarian
[18] = test system: K-562 leukemia
[19] = test system: KM12 colon
[20] = test system: LOX IMVI melanoma
[21] = test system: M14 melanoma
[22] = test system: MALME-3M melanoma
[23] = test system: MCF7 breast
[24] = test system: MDA-MB-231 breast
[25] = test system: MDA-MB-435
[26] = test system: MOLT-4 leukemia
[27] = test system: NCI-H226 lung
[28] = test system: NCI-H23 lung
[29] = test system: NCI-H460 lung
[30] = test system: NCI-H522 lung
[31] = test system: NCI/ADR-RES ovarian
[32] = test system: OVCAR-3 ovarian
[33] = test system: OVCAR-4 ovarian
[34] = test system: OVCAR-5 ovarian
[35] = test system: OVCAR-8 ovarian
[36] = test system: PC-3 prostate
[37] = test system: RPMI-8226 leukemia
[38] = test system: RXF 393 renal
[39] = test system: SF-268 CNS
[40] = test system: SF-295 CNS
[41] = test system: SF-539 CNS
[42] = test system: SK-MEL-2 melanoma
[43] = test system: SK-MEL-28 melanoma
[44] = test system: SK-MEL-5 melanoma
[45] = test system: SN12C renal
[46] = test system: SNB-19 CNS
[47] = test system: SNB-75 CNS
[48] = test system: SR leukemia
[49] = test system: SW-620 colon
[50] = test system: T-47D breast
[51] = test system: TK-10 renal
[52] = test system: U251 CNS
[53] = test system: UACC-257 melanoma
[54] = test system: UACC-62 melanoma
[55] = test system: UO-31 renal

COc1ccccc1/C=C(/C)[N+](=O)[O-]
TGI [1]: > 100 µM | TGI [2]: 21.5 µM and 18.4 µM | TGI [3]: 8.66 µM and 5.18 µM | TGI [4]: 4.68 µM and 5.46 µM | GI50 [5]: 2.13 µM and 0.687 µM | TGI [5]: 4.85 µM and 1.92 µM | TGI [6]: 13 µM and > 100 µM | TGI [7]: 10.3 µM | TGI [8]: 3.12 µM and 2.36 µM | TGI [9]: 20.1 µM and 12.3 µM | GI50 [10]: 5.36 µM and 2.35 µM | TGI [11]: 7.43 µM and 5.11 µM | TGI [12]: 4.21 µM and 5.4 µM | TGI [13]: > 100 µM | TGI [14]: 5.72 µM | TGI [15]: 29.3 µM and 26.9 µM | TGI [16]: 12.6 µM and 9.89 µM | TGI [17]: 5.18 µM and 3.72 µM | GI50 [18]: 0.688 µM and 1.71 µM | TGI [18]: 5.15 µM and 7.34 µM | TGI [19]: 10.2 µM and 3.46 µM | GI50 [20]: 0.263 µM | TGI [20]: 2.1 µM | TGI [21]: 25.6 µM and 2.78 µM | TGI [22]: 5.72 µM and 3.97 µM | GI50 [23]: 0.593 µM | TGI [23]: > 100 µM | TGI [24]: 17.7 µM and 7.87 µM | TGI [25]: 9.18 µM and 3.64 µM | TGI [26]: 0.598 µM and 1.5 µM | TGI [27]: 4.22 µM and 3.64 µM | TGI [28]: 5.81 µM | GI50 [29]: 4.07 µM and 1.94 µM | TGI [30]: 2.91 µM and 3.2 µM | TGI [31]: 8.69 µM | TGI [32]: 3.15 µM and 2.68 µM | TGI [33]: 23.6 µM and 14.8 µM | GI50 [34]: 2.89 µM and 6.42 µM | TGI [34]: 13.4 µM and 27.3 µM | TGI [35]: 4 µM and 4.24 µM | TGI [36]: 6.5 µM and 5.37 µM | GI50 [37]: 0.282 µM and 0.608 µM | GI50 [38]: 1.74 µM | TGI [38]: 4.74 µM | GI50 [39]: 5.87 µM and 2.18 µM | TGI [39]: 30.4 µM and 4.94 µM | GI50 [40]: 5.31 µM and 2.53 µM | TGI [40]: 20 µM and 6.33 µM | TGI [41]: 6.6 µM and 3.71 µM | TGI [42]: 5.01 µM and 4.64 µM | TGI [43]: 5.64 µM and 4.97 µM | TGI [44]: 5.1 µM and 3.59 µM | TGI [45]: 4.96 µM and 4.41 µM | TGI [46]: 15.1 µM and 5.77 µM | GI50 [47]: 14.1 µM and 6.99 µM | TGI [47]: > 100 µM and 54.7 µM | GI50 [48]: 0.237 µM and 1.5 µM | TGI [48]: 1.61 µM and 5.08 µM | TGI [49]: 43.1 µM | TGI [50]: 4.64 µM and 3.37 µM | TGI [51]: 13 µM and 4.21 µM | TGI [52]: 4.19 µM and 3.43 µM | TGI [53]: 3.4 µM and 3.53 µM | TGI [54]: 3.93 µM and 3.12 µM | TGI [55]: 3.36 µM and 3.39 µM
